# ChEMBL document CHEMBL1201862, “PubChem BioAssay data set” (2004)
#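 Following 48 hours of exposure in 96-well plates, responses at five concentrations were used to interpolate endpoints linearly. At the GI50, growth is halved.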 The source made the active and inactive calls. Rule as the data show it: active = GI50 up to about 1.1 µM and inactive = higher.
# What was measured:
# Experiment in all cases: growth of human tumour cells (NCI), 48 h
# [1] = test system: Malme-3M
# [2] = test system: T47D
# [3] = test system: HCC 2998
# [4] = test system: BT-549
# [5] = test system: PC-3
# [6] = test system: OVCAR-4
# [7] = test system: CCRF-CEM
# [8] = test system: HCT-116
# [9] = test system: DU-145
# [10] = test system: MDA-MB-231
# [11] = test system: OVCAR-8
# [12] = test system: RPMI-8226
# [13] = test system: Hs-578T
# [14] = test system: 786-0
# [15] = test system: A498
# [16] = test system: MDA-MB-435
# [17] = test system: MDA-N
# [18] = test system: M14
# [19] = test system: HOP-62
# [20] = test system: DMS-114
SMILES,GI50 [1],GI50 [2],GI50 [3],GI50 [4],GI50 [5],GI50 [6],GI50 [7],GI50 [8],GI50 [9],GI50 [10],GI50 [11],GI50 [12],GI50 [13],GI50 [14],GI50 [15],GI50 [16],GI50 [17],GI50 [18],GI50 [19],GI50 [20]
Cc1cc(S(=O)(=O)NC2=NCc3nc4ccccc4n32)c(S)cc1Cl,22.5 µM (inactive),21.9 µM (inactive),17.2 µM (inactive),23 µM (inactive),22.2 µM (inactive),29.4 µM (inactive),31.6 µM (inactive),18.3 µM (inactive),31.2 µM (inactive),23.5 µM (inactive),28.1 µM (inactive),20.3 µM (inactive),21.4 µM (inactive),21 µM (inactive),26.9 µM (inactive),28.8 µM (inactive),26 µM (inactive),23.7 µM (inactive),,
COc1ccc(-c2c(-c3ccccc3)c(C)c3ccccn23)cc1,95.9 µM (inactive),22.8 µM (inactive),> 100 µM (inactive),> 100 µM (inactive),84.3 µM (inactive),> 100 µM (inactive),28.2 µM (inactive),72.3 µM (inactive),> 100 µM (inactive),> 100 µM (inactive),> 100 µM (inactive),47.6 µM (inactive),> 100 µM (inactive),> 100 µM (inactive),> 100 µM (inactive),52.2 µM (inactive),70.1 µM (inactive),> 100 µM (inactive),> 100 µM (inactive),
COC(=O)C(NC(=O)OC(C)(C)C)P(=O)(OC)OC (stereo not given),> 100 µM (inactive),> 100 µM (inactive),,> 100 µM (inactive),> 100 µM (inactive),> 100 µM (inactive),,> 100 µM (inactive),> 100 µM (inactive),> 100 µM (inactive),> 100 µM (inactive),> 100 µM (inactive),> 100 µM (inactive),> 100 µM (inactive),> 100 µM (inactive),> 100 µM (inactive),> 100 µM (inactive),> 100 µM (inactive),> 100 µM (inactive),
COCCN(C(=O)c1ccccc1)C1CCC(=O)c2[nH]c3ccccc3c21 (stereo not given),7.21 µM (inactive),16.2 µM (inactive),17.1 µM (inactive),2.7 µM (inactive),5.25 µM (inactive),6.81 µM (inactive),3.64 µM (inactive),13.1 µM (inactive),14.7 µM (inactive),4.23 µM (inactive),6.85 µM (inactive),17.7 µM (inactive),15.5 µM (inactive),3.4 µM (inactive),19.1 µM (inactive),6.87 µM (inactive),,7.11 µM (inactive),5.22 µM (inactive),
O=C1CCCCCCCCCCOC(=O)CCCCCCCCCCO1,> 100 µM (inactive),,> 100 µM (inactive),,,> 100 µM (inactive),> 100 µM (inactive),> 100 µM (inactive),,,> 100 µM (inactive),,,> 100 µM (inactive),> 100 µM (inactive),,,> 100 µM (inactive),> 100 µM (inactive),> 100 µM (inactive)
Nc1ccc2c(c1)C1=NNC(=O)CC1C2 (stereo not given),> 100 µM (inactive),,> 74.1 µM (inactive),,,47.8 µM (inactive),> 100 µM (inactive),> 100 µM (inactive),,,> 100 µM (inactive),> 40.4 µM (inactive),,,60.4 µM (inactive),,,,> 100 µM (inactive),> 100 µM (inactive)
c1ccc2c(c1)c1c(n2CCOCCCN2CCCCC2)CCCC1,18 µM (inactive),17.2 µM (inactive),18 µM (inactive),15.5 µM (inactive),13.1 µM (inactive),12.5 µM (inactive),,,44.7 µM (inactive),20.5 µM (inactive),17.6 µM (inactive),31.1 µM (inactive),20.1 µM (inactive),,25.8 µM (inactive),18.1 µM (inactive),21.8 µM (inactive),27.9 µM (inactive),16.3 µM (inactive),
Cc1nc2c(nc1Cl)nc(Oc1ccc(Cl)cc1)c1ccccc12,74.3 µM (inactive),,> 100 µM (inactive),,,32 µM (inactive),> 100 µM (inactive),41.7 µM (inactive),,,23.9 µM (inactive),> 100 µM (inactive),,18.6 µM (inactive),,,,85.7 µM (inactive),28.6 µM (inactive),47.5 µM (inactive)
N#C[C@H](c1ccccn1)c1nc2ccccc2nc1Cl,> 100 µM (inactive),> 100 µM (inactive),> 100 µM (inactive),> 100 µM (inactive),> 100 µM (inactive),> 100 µM (inactive),> 100 µM (inactive),> 100 µM (inactive),,> 100 µM (inactive),> 100 µM (inactive),> 100 µM (inactive),> 100 µM (inactive),> 100 µM (inactive),> 100 µM (inactive),> 100 µM (inactive),> 100 µM (inactive),> 100 µM (inactive),> 100 µM (inactive),
COc1ccc(NC(=S)c2ccc([N+](=O)[O-])o2)cc1,2.37 µM (inactive),3.01 µM (inactive),1.62 µM (inactive),1.85 µM (inactive),1.32 µM (inactive),1.55 µM (inactive),2.14 µM (inactive),1.52 µM (inactive),3.17 µM (inactive),2.48 µM (inactive),1.28 µM (inactive),1.19 µM (inactive),2.33 µM (inactive),1.97 µM (inactive),15.6 µM (inactive),2.06 µM (inactive),2.29 µM (inactive),2.88 µM (inactive),2.82 µM (inactive),
CC12CCC3C(CCC4CC(OC(=O)Cc5ccc(N(CCCl)CCCl)cc5)CCC43C)C1CCC(=O)N2 (stereo not given),18.2 µM (inactive),,18.9 µM (inactive),,,15.9 µM (inactive),6.25 µM (inactive),15.1 µM (inactive),,,15.8 µM (inactive),15.2 µM (inactive),,15.5 µM (inactive),16.8 µM (inactive),,,17.7 µM (inactive),,12.8 µM (inactive)
O=C(c1ccccc1)c1cc(Cl)ccc1NCn1nnc2ccccc21,,,47.8 µM (inactive),,,9.46 µM (inactive),77.4 µM (inactive),,,,> 100 µM (inactive),41.6 µM (inactive),,> 100 µM (inactive),65.2 µM (inactive),,,88.7 µM (inactive),> 100 µM (inactive),31.5 µM (inactive)
C[N+](C)(C)/C=N\c1cccc2c1CCCC2,> 100 µM (inactive),69.3 µM (inactive),,57.1 µM (inactive),39.8 µM (inactive),> 100 µM (inactive),50.7 µM (inactive),> 100 µM (inactive),> 100 µM (inactive),> 100 µM (inactive),> 100 µM (inactive),21.5 µM (inactive),> 100 µM (inactive),> 100 µM (inactive),> 100 µM (inactive),90.8 µM (inactive),> 100 µM (inactive),> 100 µM (inactive),> 100 µM (inactive),
Cc1c(Cc2ccccc2)n(COCCCO)c(=O)[nH]c1=O,> 100 µM (inactive),> 100 µM (inactive),> 100 µM (inactive),> 100 µM (inactive),> 100 µM (inactive),> 100 µM (inactive),> 100 µM (inactive),> 100 µM (inactive),> 100 µM (inactive),> 100 µM (inactive),> 100 µM (inactive),> 100 µM (inactive),> 100 µM (inactive),> 100 µM (inactive),> 100 µM (inactive),> 100 µM (inactive),> 100 µM (inactive),> 100 µM (inactive),> 100 µM (inactive),
CC(C)N(C)C(=O)C12C3C4C1C1C2C3C41C#N (stereo not given),,> 100 µM (inactive),> 100 µM (inactive),> 100 µM (inactive),> 100 µM (inactive),> 100 µM (inactive),> 100 µM (inactive),> 100 µM (inactive),> 100 µM (inactive),> 100 µM (inactive),> 100 µM (inactive),,> 100 µM (inactive),> 100 µM (inactive),> 100 µM (inactive),> 100 µM (inactive),> 100 µM (inactive),> 100 µM (inactive),> 100 µM (inactive),
C=C1CC(OC)(C(OC)C(=O)N[C@H]2OCO[C@H]3C2O[C@H](C[C@@H](COC)OC)C(C)(C)C3OC)O[C@H](C)[C@@H]1C (stereo not given in full),,,,,,0.733 µM (active),0.21 µM (active),0.624 µM (active),,,0.861 µM (active),0.111 µM (active),,,1.03 µM (active),,,,1.04 µM (active),1.22 µM (inactive)
CC(=O)O[C@H]1CC[C@@]2(C)[C@H](CC[C@@H]3[C@@H]2CC[C@]2(C)[C@@H](c4ccc(=O)oc4)C[C@H]4O[C@]342)C1,0.571 µM (active),,1.33 µM (inactive),,,0.675 µM (active),0.392 µM (active),0.472 µM (active),,,0.509 µM (active),0.664 µM (active),,,0.69 µM (active),,,,0.521 µM (active),0.119 µM (active)
